This assay concerns the target T1, Zcchc11 enzyme (Homo sapiens, UniProt Q5TAX3).
T1 construct: made in house; host or cells: HEK293 cells (Zcchc11); E. coli Rosetta II (LIN28A)
T1 sequence (Q5TAX3 212-1420): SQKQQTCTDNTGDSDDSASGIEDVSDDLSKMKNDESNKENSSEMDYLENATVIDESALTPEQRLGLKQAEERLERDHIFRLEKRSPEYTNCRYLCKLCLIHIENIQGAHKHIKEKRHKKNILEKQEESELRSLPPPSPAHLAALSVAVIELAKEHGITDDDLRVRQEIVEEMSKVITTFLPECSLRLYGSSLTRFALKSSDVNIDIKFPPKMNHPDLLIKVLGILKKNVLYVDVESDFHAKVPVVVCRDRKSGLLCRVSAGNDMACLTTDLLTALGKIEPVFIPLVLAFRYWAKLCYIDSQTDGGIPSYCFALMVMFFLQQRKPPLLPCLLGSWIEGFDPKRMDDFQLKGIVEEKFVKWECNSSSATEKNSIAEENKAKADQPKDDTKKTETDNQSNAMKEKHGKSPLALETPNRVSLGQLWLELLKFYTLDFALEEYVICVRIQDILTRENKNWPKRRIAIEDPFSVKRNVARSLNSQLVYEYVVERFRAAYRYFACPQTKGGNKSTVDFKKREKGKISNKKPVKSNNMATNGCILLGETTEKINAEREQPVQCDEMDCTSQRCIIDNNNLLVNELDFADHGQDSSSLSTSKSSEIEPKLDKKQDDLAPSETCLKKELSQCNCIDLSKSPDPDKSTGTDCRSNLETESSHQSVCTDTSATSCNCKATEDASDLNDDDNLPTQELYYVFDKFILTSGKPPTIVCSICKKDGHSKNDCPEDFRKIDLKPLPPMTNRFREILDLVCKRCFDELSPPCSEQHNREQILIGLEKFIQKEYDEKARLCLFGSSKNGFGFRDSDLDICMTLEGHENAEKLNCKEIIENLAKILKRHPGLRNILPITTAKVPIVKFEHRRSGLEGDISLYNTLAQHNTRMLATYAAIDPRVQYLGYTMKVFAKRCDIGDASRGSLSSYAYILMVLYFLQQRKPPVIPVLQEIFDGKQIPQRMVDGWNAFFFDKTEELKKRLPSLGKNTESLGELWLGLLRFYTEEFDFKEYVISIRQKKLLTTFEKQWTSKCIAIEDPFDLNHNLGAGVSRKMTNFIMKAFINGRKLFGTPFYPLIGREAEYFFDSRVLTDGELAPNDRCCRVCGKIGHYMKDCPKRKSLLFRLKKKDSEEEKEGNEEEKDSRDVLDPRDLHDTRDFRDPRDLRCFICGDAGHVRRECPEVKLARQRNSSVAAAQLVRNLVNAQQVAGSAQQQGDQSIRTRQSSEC
Kind of assay: TUTase assay (Zcchc11 assay, Lin28a-dependent polyuridylation of pre-let-7). Format: biochemical. To be noted: Lin28a-dependent Zcchc11 (Z11) TUTase assay; read-out: Potency Lin28a-dep Z11 IC50. Summed up:
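LIN28A (10 nM) in pH 7.3 HEPES/KCl/MgCl2/DTT buffer was mixed with serially diluted compound, then 0.2 nM truncated human Zcchc11 and 2 nM labeled pre-let-7 were added for 30 min at room temperature. UTP (5 uM) and quench probe (4 nM) then started the reaction. Linear early rates gave IC50 values.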
On to `O=C(O)c1cn(-c2cnc3[nH]ncc3n2)c2cc(N3CCC[C@@H]3COc3ncccc3Cl)c(Cl)cc2c1=O` [Example 549, (R)-6-chloro-7-(2-(((3-chloropyridin-2-yl)oxy)methyl)pyrrolidin-1-yl)-4-oxo-1-(1H-pyrazolo[3,4-b]pyrazin-5-yl)-1,4-dihydroquinoline-3-carboxylic acid], for which the IC50 (usually the point on the concentration scale where inhibition reaches its midpoint) was not above 1000 nM.

As for `CCc1cc2c(=O)c(C(=O)O)cn(-c3cnccn3)c2cc1N1CCC[C@@H]1COc1ncccc1Cl` [Example 551, (R)-7-(2-(((3-chloropyridin-2-yl)oxy)methyl)pyrrolidin-1-yl)-6-ethyl-4-oxo-1-(pyrazin-2-yl)-1,4-dihydroquinoline-3-carboxylic acid], the IC50 is not above 1000 nM.

Regarding `O=C(O)c1cn(-c2ccnc(N3CCC3)c2)c2cc(N3CCC[C@@H]3COc3ccccn3)c(Cl)cc2c1=O` [Example 553, (R)-1-(2-(azetidin-1-yl)pyridin-4-yl)-6-chloro-4-oxo-7-(2-((pyridin-2-yloxy)methyl)pyrrolidin-1-yl)-1,4-dihydroquinoline-3-carboxylic acid], the IC50 is not above 1000 nM.

In the case of `O=C(O)c1cn(-c2ccnc(N3CCC3)c2)c2cc(N3CCC[C@@H]3COc3ncccc3Cl)c(Cl)cc2c1=O` [Example 554, (R)-1-(2-(azetidin-1-yl)pyridin-4-yl)-6-chloro-7-(2-(((3-chloropyridin-2-yl)oxy)methyl)pyrrolidin-1-yl)-4-oxo-1,4-dihydroquinoline-3-carboxylic acid], the IC50 was not above 1000 nM.

`Nc1ncc(-n2cc(C(=O)O)c(=O)c3cc(Cl)c(N4CCC[C@@H]4COc4ncccc4Cl)cc32)cn1` [Example 555, (R)-1-(2-aminopyrimidin-5-yl)-6-chloro-7-(2-(((3-chloropyridin-2-yl)oxy)methyl)pyrrolidin-1-yl)-4-oxo-1,4-dihydroquinoline-3-carboxylic acid]: the half-inhibitory concentration (IC50) was not above 1000 nM.

`O=C(O)c1cn(Cc2ccccc2)c2cc(N3CCC[C@@H]3COc3ncccc3Cl)c(Cl)cc2c1=O` [Example 556, (R)-1-benzyl-6-chloro-7-(2-(((3-chloropyridin-2-yl)oxy)methyl)pyrrolidin-1-yl)-4-oxo-1,4-dihydroquinoline-3-carboxylic acid]: the concentration for half-maximal inhibition (IC50) was 1000 to 10000 nM.

For `O=C(O)c1cn(Cc2cccnc2)c2cc(N3CCC[C@@H]3COc3ncccc3Cl)c(Cl)cc2c1=O` [Example 557, (R)-6-chloro-7-(2-(((3-chloropyridin-2-yl)oxy)methyl)pyrrolidin-1-yl)-4-oxo-1-(pyridin-3-ylmethyl)-1,4-dihydroquinoline-3-carboxylic acid], the IC50 is not above 1000 nM.

`COCCNc1ccc(-n2cc(C(=O)O)c(=O)c3cc(I)c(N4CCC[C@@H]4COc4ncccc4Cl)cc32)cn1` [Example 558, (R)-7-(2-(((3-chloropyridin-2-yl)oxy)methyl)pyrrolidin-1-yl)-6-iodo-1-(6-((2-methoxyethyl)amino)pyridin-3-yl)-4-oxo-1,4-dihydroquinoline-3-carboxylic acid]: the IC50 was not above 1000 nM.

Regarding `CN(C)C1CN(c2ccc(-n3cc(C(=O)O)c(=O)c4cc(C5CC5)c(N5CCC[C@@H]5COc5ncccc5Cl)cc43)cn2)C1` [Example 559, (R)-7-(2-(((3-chloropyridin-2-yl)oxy)methyl)pyrrolidin-1-yl)-6-cyclopropyl-1-(6-(3-(dimethylamino)azetidin-1-yl)pyridin-3-yl)-4-oxo-1,4-dihydroquinoline-3-carboxylic acid], the half-maximal inhibitory concentration (IC50) is not above 1000 nM.

With `O=C(O)c1cn(-c2ncc[nH]2)c2cc(N3CCC[C@@H]3COc3ncccc3Cl)c(Cl)cc2c1=O` [Example 560, (R)-6-chloro-7-(2-(((3-chloropyridin-2-yl)oxy)methyl)pyrrolidin-1-yl)-1-(1H-imidazol-2-yl)-4-oxo-1,4-dihydroquinoline-3-carboxylic acid], the IC50 is not above 1000 nM.

Consider `CN1CCn2nc(-n3cc(C(=O)O)c(=O)c4cc(C#N)c(N5CCC[C@@H]5COc5ncccc5Cl)cc43)cc2C1` [Example 561, (R)-7-(2-(((3-chloropyridin-2-yl)oxy)methyl)pyrrolidin-1-yl)-6-cyano-1-(5-methyl-4,5,6,7-tetrahydropyrazolo [1,5-a]pyrazin-2-yl)-4-oxo-1,4-dihydroquinoline-3-carboxylic acid], for which the 50% inhibitory concentration (IC50) is not above 1000 nM.

As to `CN(C)[C@H]1CCN(c2ccc(-n3cc(C(=O)O)c(=O)c4cc(C#N)c(N5CCC[C@@H]5COc5ncccc5Cl)cc43)cn2)C1` [Example 562, 7-((R)-2-(((3-chloropyridin-2-yl)oxy)methyl)pyrrolidin-1-yl)-6-cyano-1-(6-((S)-3-(dimethylamino)pyrrolidin-1-yl)pyridin-3-yl)-4-oxo-1,4-dihydroquinoline-3-carboxylic acid], the 50% inhibitory concentration (IC50) was not above 1000 nM.

Take `CN(C)[C@@H]1CCN(c2ccc(-n3cc(C(=O)O)c(=O)c4cc(C#N)c(N5CCC[C@@H]5COc5ncccc5Cl)cc43)cn2)C1` [Example 563, 7-((R)-2-(((3-chloropyridin-2-yl)oxy)methyl)pyrrolidin-1-yl)-6-cyano-1-(6-((R)-3-(dimethylamino)pyrrolidin-1-yl)pyridin-3-yl)-4-oxo-1,4-dihydroquinoline-3-carboxylic acid]: the IC50 is not above 1000 nM.

Take `CN(C)C1CN(c2cc(-n3cc(C(=O)O)c(=O)c4cc(Cl)c(N5CCC[C@@H]5COc5ccccn5)cc43)ccn2)C1` [Example 564, (R)-6-chloro-1-(2-(3-(dimethylamino)azetidin-1-yl)pyridin-4-yl)-4-oxo-7-(2-((pyridin-2-yloxy)methyl)pyrrolidin-1-yl)-1,4-dihydroquinoline-3-carboxylic acid]: the IC50 was not above 1000 nM.

In the case of `O=C(O)c1cn(-c2c[nH]cn2)c2cc(N3CCC[C@@H]3COc3ncccc3Cl)c(Cl)cc2c1=O` [Example 565, (R)-6-chloro-7-(2-(((3-chloropyridin-2-yl)oxy)methyl)pyrrolidin-1-yl)-1-(1H-imidazol-4-yl)-4-oxo-1,4-dihydroquinoline-3-carboxylic acid], the IC50 is not above 1000 nM.

On to `Cn1cnc(-n2cc(C(=O)O)c(=O)c3cc(Cl)c(N4CCC[C@@H]4COc4ncccc4Cl)cc32)c1` [Example 566, (R)-6-chloro-7-(2-(((3-chloropyridin-2-yl)oxy)methyl)pyrrolidin-1-yl)-1-(1-methyl-1H-imidazol-4-yl)-4-oxo-1,4-dihydroquinoline-3-carboxylic acid], for which the half-maximal inhibitory concentration (IC50) is not above 1000 nM.

With `Cn1cncc1-n1cc(C(=O)O)c(=O)c2cc(Cl)c(N3CCC[C@@H]3COc3ncccc3Cl)cc21` [Example 567, (R)-6-chloro-7-(2-(((3-chloropyridin-2-yl)oxy)methyl)pyrrolidin-1-yl)-1-(1-methyl-1H-imidazol-5-yl)-4-oxo-1,4-dihydroquinoline-3-carboxylic acid], the half-inhibitory concentration (IC50) is not above 1000 nM.

Turning to `Cn1ccnc1-n1cc(C(=O)O)c(=O)c2cc(Cl)c(N3CCC[C@@H]3COc3ncccc3Cl)cc21` [Example 568, (R)-6-chloro-7-(2-(((3-chloropyridin-2-yl)oxy)methyl)pyrrolidin-1-yl)-1-(1-methyl-1H-imidazol-2-yl)-4-oxo-1,4-dihydroquinoline-3-carboxylic acid], the concentration for half-maximal inhibition (IC50) was not above 1000 nM.

On to `N#CCn1cc(C(=O)O)c(=O)c2cc(Cl)c(N3CCC[C@@H]3COc3ncccc3Cl)cc21` [Example 569, (R)-6-chloro-7-(2-(((3-chloropyridin-2-yl)oxy)methyl)pyrrolidin-1-yl)-1-(cyanomethyl)-4-oxo-1,4-dihydroquinoline-3-carboxylic acid], for which the IC50 is not above 1000 nM.

Consider `CN(C)CCNc1ccc(-n2cc(C(=O)O)c(=O)c3cc(C#N)c(N4CCC[C@@H]4COc4ncccc4Cl)cc32)cn1` [Example 570, (R)-7-(2-(((3-chloropyridin-2-yl)oxy)methyl)pyrrolidin-1-yl)-6-cyano-1-(6-((2-(dimethylamino)ethyl)amino)pyridin-3-yl)-4-oxo-1,4-dihydroquinoline-3-carboxylic acid], for which the IC50 is not above 1000 nM.
